Data published in article PMC10338423, “Synthesis and preclinical evaluation of a novel fluorine-18 labeled small-molecule PET radiotracer for imaging of CXCR3 receptor in mouse models of atherosclerosis” (EJNMMI Research, 2023).

Legend:
[1] = molecular target: human CXCR3; design: method as in PMID 24174496, PMID 25576486; conditions: cited from earlier work
[2] = molecular target: T1, CXCR3B (Homo sapiens, UniProt P49682); experiment: Competition binding assay with [125I]CXCL10 on membranes of CXCR3B-transfected HEK293 cells; conditions: 80 pM 125I-CXCL10, Cheng-Prusoff
T1 construct: crude membranes
T1 sequence (P49682 1-415 isoform P49682-2): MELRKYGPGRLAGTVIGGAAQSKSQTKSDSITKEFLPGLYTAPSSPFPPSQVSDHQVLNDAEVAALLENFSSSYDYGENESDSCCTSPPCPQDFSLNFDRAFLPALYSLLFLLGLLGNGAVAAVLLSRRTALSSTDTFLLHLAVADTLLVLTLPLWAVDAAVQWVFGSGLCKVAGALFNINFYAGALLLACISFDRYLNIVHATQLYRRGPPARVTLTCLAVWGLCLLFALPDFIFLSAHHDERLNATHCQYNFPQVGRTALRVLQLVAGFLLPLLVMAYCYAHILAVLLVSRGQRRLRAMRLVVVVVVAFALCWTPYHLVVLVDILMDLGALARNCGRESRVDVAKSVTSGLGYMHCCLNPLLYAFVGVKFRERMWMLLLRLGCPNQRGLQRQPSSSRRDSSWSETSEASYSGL
Experimental: (§1) The equilibrium inhibition constants (Ki) value of 1 at CXCR3 receptor was measured through competition binding assay using NBI74330 (Tocris Bioscience, Bristol, UK), an antagonist of CXCR3 receptor, [^125I]CXCL10 (ViTrax Inc., Placentia, CA) and CXCR3 transfected human embryonic kidney (HEK) 293 cells. CXCR3 has two major variants, CXCR3A and CXCR3B, with distinctive biological roles, so two types of HEK293 cells containing each CXCR3 variant were prepared. Before the cell-binding assay, two cDNA constructs containing CXCR3 transcript variant A (CXCR3A, GenBank accession No. NM_001504; GenScript) and CXCR3 transcript variant B (CXCR3B, GenBank accession No. NM_001142797; GenScript) and HEK293 cells were purchased from GenScript Biotech (Piscataway, NJ) and ATCC (Manassas, VA), respectively. Then the cDNA constructs were transfected to HEK293 cells, and the transfected cells were cultured to get enough amount for the cell-binding assay. […] The IC50 value of 1 was measured based on the regression plot between the […] radioligand and the different concentrations of 1. […]
(§2) Radioligand binding was performed using crude HEK293 membranes overexpressing CXCR3A or CXCR3B as previously described. […] The Ki values of each competitive antagonist for specific ^125I-CXCL10 binding sites were calculated using the method of Cheng and Prusoff, as previously described. […]

[3] = molecular target: T2, CXCR3A (Homo sapiens, UniProt P49682); experiment: Competition binding assay with [125I]CXCL10 on membranes of CXCR3A-transfected HEK293 cells; conditions: 80 pM 125I-CXCL10, Cheng-Prusoff
T2 construct: crude membranes
T2 sequence (P49682 1-368): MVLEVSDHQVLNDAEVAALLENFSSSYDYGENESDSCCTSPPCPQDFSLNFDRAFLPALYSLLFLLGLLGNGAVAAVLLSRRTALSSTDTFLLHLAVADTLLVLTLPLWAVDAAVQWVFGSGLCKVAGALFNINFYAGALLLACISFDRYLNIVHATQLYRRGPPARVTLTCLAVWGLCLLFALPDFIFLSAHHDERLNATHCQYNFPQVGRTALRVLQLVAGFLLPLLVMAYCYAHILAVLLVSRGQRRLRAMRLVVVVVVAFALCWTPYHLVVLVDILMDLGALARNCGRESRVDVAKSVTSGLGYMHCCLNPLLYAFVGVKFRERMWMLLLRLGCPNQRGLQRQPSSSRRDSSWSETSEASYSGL
Experimental: as §1, §2

[4] = test system: CXCR3; design: method as in PMID 24486132; conditions: read-out: binding affinity IC50; cited from earlier work

Row | Compound | Kd [1] | Ki [2] | Ki [3] | IC50 [4]
1 | CCNC(=O)c1cnc(N2CCN(C3CCN(Cc4ccc(Cl)cc4)CC3)[C@@H](CC)C2)c(Cl)c1 [VUF11211] | 0.65 nM | – | – | –
2 | CC[C@H]1CN(c2ncc(-c3nnco3)cc2Cl)CCN1C1CCN(Cc2ccc(Cl)cc2F)CC1 [compound 1, (S)-2-(5-chloro-6-(4-(1-(4-chloro-2-fluorobenzyl)piperidin-4-yl)-3-ethylpiperazin-1-yl)pyridin-3-yl)-1,3,4-oxadiazole] | – | 0.31 ± 0.02 nM | 0.81 ± 0.02 nM | 0.8 nM
